Source: patent US20250288570A1, “TREATMENT OF NEUROLOGICAL DISORDERS” (Praxis Precision Medicines, Inc., priority 2022, published 2025)
Entries after “also recorded” stand apart in the source; their conditions may differ.

Columns and labels:
[1] = test system: psychomotor seizures induced by 6-Hz electrical stimulation in CD-1 mice; assay: 6-Hz psychomotor seizure model (32 and 44 mA); format: in vivo, mouse
From the text: The 6-Hz test is a validated model of focal seizures for evaluating the anti-seizure potential of compounds. The 6-Hz seizure model can be performed at different stimulation intensities (32 or 44 mA), with the higher intensity (44 mA) used as a model of pharmacoresistant seizures. The positive control valproate is an approved anti-seizure medicine (ASM).
This study evaluated the efficacy of Compound 1 in attenuating psychomotor seizures induced by 6-Hz electrical stimulation at two different stimulation intensities (32 and 44 mA) in wild-type CD-1 mice. Psychomotor seizures are defined as the expression of at least one of the following behaviors: stun/immobility, forelimb clonus, straub tail or lateral head movement within 30 seconds of the stimulus. Protection is defined as a complete absence of the above behaviors within 30 seconds of the stimulus. Doses of Compound 1 used were 1 mg/kg, 3 mg/kg and 6 mg/kg administered orally. Valproate (600 mg/kg, administered intraperitoneally) was used as a positive control.
Male CD-1 mice (Charles River Laboratories; St. Constant, Quebec, CAN) were used for the study. Body weights at the time the experiment was carried out were 30-40 grams. The mice were group-housed in polycarbonate cages according to standard operating procedures. Animals were maintained on a 12-hour light/12 hour dark cycle, with all experimental activities occurring during the light phase. Food and water were available ad libitum. Mice acclimated to the test facility for at least 72 hours prior to testing.
Treatment was conducted using Compound 1 and 35% 2-hydroxypropyl-β-cyclodextrin (35% HPBCD, used as a negative control). Compound 1 stock solution was prepared fresh each experiment day in 35% HPBCD. […] Valproate was prepared fresh each experiment day in a vehicle of saline and dosed at 10 mL/kg.
Mice were administered vehicle (35% HPBCD), a single dose of Compound 1 (1 mg/kg, 3 mg/kg or 6 mg/kg) or valproate (600 mg/kg). Vehicle and Compound 1 were administered via oral gavage 30 minutes prior to […]. Valproate was administered as an intraperitoneal injection 60 minutes prior to the electrical stimulus.
Immediately prior to conducting the 6-Hz seizure test, a brief neurological assessment was performed. Each animal was visually assessed and received a score from 0 to 3 according to the following scoring system: neurological score of 0 corresponds to a normal status; neurological score of 1 corresponds to a modest decrease in spontaneous activity; neurological score of 2 corresponds to a marked decrease in spontaneous activity; and neurological score of 3 corresponds to loss of righting reflex.
Corneal electrodes moistened with saline (ECT unit 57800; Ugo Basile) were used to deliver the electrical stimulus (6-Hz, 0.2 millisecond pulse width, 3 seconds duration). The current delivered was either 32 mA or 44 mA. Immediately after the electrical stimulus, each mouse was monitored continuously for 30 seconds by an observer blinded to the treatment group. […] Mice were scored for the presence or absence of each seizure behavior, with a maximum total score of 4. […] At the end of the 6-Hz seizure test, plasma and brain samples were collected.
Mice were anesthetized with isoflurane, whole blood was collected via cardiac puncture and brains were harvested. […] Plasma and brain samples were stored at −80° C. and analyzed to determine levels of Compound 1. […]

[2] = test system: locomotor activity of male CD-1 mice; assay: Spontaneous locomotor activity (sLMA) test, Example 8; format: in vivo, mouse
Procedure: The spontaneous locomotor activity (sLMA) test is a validated model for evaluating the potential effects of a compound on motor function. This study evaluated the effect of Compound 1 on locomotor activity of male CD-1 mice. Doses of Compound 1 used were 3 mg/kg, 5.6 mg/kg, 10 mg/kg and 20 mg/kg administered orally (p.o.).
Male CD-1 mice (Vital River, Beijing, China) approximately 6 weeks old were used for the study. Body weights were between 25 g and 35 g at the time of experiment.
Treatment was conducted using Compound 1 and 35% 2-hydroxypropyl-β-cyclodextrin (35% HPBCD, used as a negative control). Compound 1 stock solution was prepared fresh each experiment day in 35% HPBCD and protected from light. The stock solution was diluted with vehicle for lower doses.
The spontaneous locomotor activity (sLMA) test for each study was carried out over three days, with mice from each treatment group tested each day. The treatment groups included mice dosed with vehicle (35% HPBCD) and with Compound 1 at the dose of 3 mg/kg, 5.6 mg/kg, 10 mg/kg and 20 mg/kg. Mice were randomly assigned into one of the treatment groups.
A single dose of Compound 1 (3 mg/kg, 5.6 mg/kg, 10 mg/kg and 20 mg/kg) or vehicle (35% HPBCD) was administered to mice via oral gavage 30 minutes prior to testing. Immediately prior to conducting the sLMA test, a brief neurological assessment was performed. Each animal was visually assessed for sedation and ataxia.
Activity was recorded by overhead cameras and was analyzed offline. Video tracking analysis software was used to determine total distance travelled in millimeters. Distance travelled was also calculated in 5-minute bins.
All statistical analyses were conducted using GraphPad Prism 9.3. Means were combined and standard error was calculated using the Satterthwaite Approximation to combined standard deviations. […] TD50 and TC50 values were calculated from these fit curves.

human Nav1.6 [3] = target: T1, human Nav1.6 (Homo sapiens, UniProt Q9UQD0); assay: ATX-II activated late (persistent) INa block, automated patch clamp in HEK cells; format: cell-based
T1 construct: HEK-293 cell lines stably expressing human Nav1.6 (NP_055006) were used; expressed in transfected cells
T1 sequence (Q9UQD0 whole entry): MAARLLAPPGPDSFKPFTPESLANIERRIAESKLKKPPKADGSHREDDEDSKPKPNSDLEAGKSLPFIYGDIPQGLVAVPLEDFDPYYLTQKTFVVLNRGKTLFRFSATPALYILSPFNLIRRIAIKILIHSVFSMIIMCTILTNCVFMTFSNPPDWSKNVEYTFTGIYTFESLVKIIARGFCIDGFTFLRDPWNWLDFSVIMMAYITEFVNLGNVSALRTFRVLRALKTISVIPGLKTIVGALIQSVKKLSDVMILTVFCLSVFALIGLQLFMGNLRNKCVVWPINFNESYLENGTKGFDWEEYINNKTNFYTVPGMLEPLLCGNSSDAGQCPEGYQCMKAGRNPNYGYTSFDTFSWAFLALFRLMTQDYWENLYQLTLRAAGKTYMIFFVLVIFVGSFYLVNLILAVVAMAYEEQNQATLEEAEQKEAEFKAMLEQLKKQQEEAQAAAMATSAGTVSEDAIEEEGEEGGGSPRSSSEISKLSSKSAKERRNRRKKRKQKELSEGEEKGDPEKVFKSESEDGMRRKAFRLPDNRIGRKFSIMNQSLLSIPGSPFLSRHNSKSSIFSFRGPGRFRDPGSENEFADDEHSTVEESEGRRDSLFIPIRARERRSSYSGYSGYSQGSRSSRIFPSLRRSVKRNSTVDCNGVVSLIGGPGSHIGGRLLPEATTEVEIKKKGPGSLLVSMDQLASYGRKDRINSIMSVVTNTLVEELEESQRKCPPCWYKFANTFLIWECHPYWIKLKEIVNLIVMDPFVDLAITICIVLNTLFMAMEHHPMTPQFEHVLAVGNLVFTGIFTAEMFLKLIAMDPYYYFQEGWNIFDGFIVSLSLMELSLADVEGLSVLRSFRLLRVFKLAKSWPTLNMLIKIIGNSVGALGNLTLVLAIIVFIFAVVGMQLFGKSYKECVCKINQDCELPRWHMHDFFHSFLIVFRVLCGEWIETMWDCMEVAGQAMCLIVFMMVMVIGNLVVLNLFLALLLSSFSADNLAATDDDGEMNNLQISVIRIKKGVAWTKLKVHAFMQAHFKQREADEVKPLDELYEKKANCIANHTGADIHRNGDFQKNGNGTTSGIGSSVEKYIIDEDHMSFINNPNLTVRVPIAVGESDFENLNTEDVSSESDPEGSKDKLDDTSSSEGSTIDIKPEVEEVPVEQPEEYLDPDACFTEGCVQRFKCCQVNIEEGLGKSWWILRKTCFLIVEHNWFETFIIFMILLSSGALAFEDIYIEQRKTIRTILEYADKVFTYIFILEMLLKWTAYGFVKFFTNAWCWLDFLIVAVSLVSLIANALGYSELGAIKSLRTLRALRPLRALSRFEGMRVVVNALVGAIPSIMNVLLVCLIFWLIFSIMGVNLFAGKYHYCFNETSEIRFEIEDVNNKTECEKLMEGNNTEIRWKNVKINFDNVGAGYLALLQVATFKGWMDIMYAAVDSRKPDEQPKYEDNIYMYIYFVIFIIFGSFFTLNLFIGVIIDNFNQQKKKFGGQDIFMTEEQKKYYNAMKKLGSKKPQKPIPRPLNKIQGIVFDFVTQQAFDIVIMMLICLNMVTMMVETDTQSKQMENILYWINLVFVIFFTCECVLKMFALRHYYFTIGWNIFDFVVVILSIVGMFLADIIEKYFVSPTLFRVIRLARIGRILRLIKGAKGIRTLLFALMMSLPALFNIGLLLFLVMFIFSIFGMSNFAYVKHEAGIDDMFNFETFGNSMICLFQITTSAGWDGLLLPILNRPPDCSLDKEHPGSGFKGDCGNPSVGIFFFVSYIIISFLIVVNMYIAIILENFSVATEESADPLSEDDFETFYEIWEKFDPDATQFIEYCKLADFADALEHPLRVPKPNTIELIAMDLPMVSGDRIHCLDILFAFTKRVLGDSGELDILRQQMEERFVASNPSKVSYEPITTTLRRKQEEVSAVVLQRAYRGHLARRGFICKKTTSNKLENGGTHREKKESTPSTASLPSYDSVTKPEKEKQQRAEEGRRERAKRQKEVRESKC

[4] = test system: multiple NaV isoforms and orthologs; assay: ATX-II induced persistent INa of multiple NaV isoforms and orthologs; format: cell-based
human Nav1.6 [5] = target: T1, human Nav1.6; assay: Peak INa tonic block (TB), automated patch clamp in HEK cells; format: cell-based; details: ratio of peak INa (TB) to persistent INa IC50

CCOC(F)(F)c1nnc2ccc(-c3cnc(OCC(F)(F)F)c(F)c3)cn12 [Compound 1]
seizure score (in words) ([1]; 6 mg/kg p.o., 32 and 44 mA): significantly reduced the seizure score; also recorded: reduced seizure scores compared to vehicle
incidence of seizures (in words) ([1]; 6 mg/kg p.o., 32 mA): significantly reduced the incidence of seizures
neurological scores ([1]; any dose of Compound 1 (1, 3, 6 mg/kg)): all neurological scores were zero; also recorded: normal
sedation or ataxia (in words) ([2]; 3 mg/kg and 5.6 mg/kg): No sedation or ataxia was observed
mice with sedation and/or ataxia ([2]; 10 mg/kg): five
mice with sedation and/or ataxia ([2]; 20 mg/kg): eight
sLMA TD50 ([2]; p.o., distance travelled): 10.4 mg/kg
persistent INa preference to TB (human Nav1.6 [3]): 68 ×
potency for persistent INa relative to the other tested INa blocking agents (human Nav1.6 [3]): at least 550 ×
inhibition of and preference for persistent INa (in words) (human Nav1.6 [3]; hNav1.6): concentration dependent inhibition of late sodium current; also recorded: preference for persistent INa relative to peak INa for all assay conditions; also recorded: potently inhibited ATX-II-induced persistent INa; also recorded: potent inhibition of persistent INa; also recorded: potent inhibitor of persistent INa; also recorded: increased potency for persistent INa relative to standard NaV-targeting ASMs
Persistent INa Hill slope (human Nav1.6 [3]; hNav1.6 in HEK cells): (1.4)
inhibition of persistent INa at other isoforms and orthologs (in words) [4]: inhibits ATX-II induced persistent INa expressed by multiple NaV isoforms and orthologs
Peak INa TB Ratio to Pers. INa (human Nav1.6 [5]): 68
